# What was measured:
# [1] = tested on: Salmonella typhimurium strains TA 98, TA 100, TA 1535, TA 1537; test: Ames test (Bacterial Reverse Mutation Test), Salmonella; format: cell-based; details: 10-1000 μg per plate; without as well as with metabolic activation
# Procedure: The test substance was (114) assayed for the mutagenicity by the Bacterial Reverse Mutation Test. The performed test was based on EU method B.13/14 Mutagenicity—Reverse mutation test using bacteria, which is analogous to the OECD Test Guideline No. 471. Four indicator Salmonella typhimurium strains TA 98, TA 100, TA 1535, TA 1537 and one indicator Escherichia coli WP2 uvrA strain were used. The test substance was dissolved in dimethylsulfoxide (DMSO) and assayed in doses of 10-1000 μg per plate, which were applied to plates in volume of 0.1 mL. Experiments were performed without as well as with metabolic activation with a supernatant of rat liver and a mixture of cofactors. The working procedure described is in accordance with the documents Method B.13/14, Mutagenicity: Reverse Mutation Test Using Bacteria, Council Regulation (EC) No. 440/2008. Published in O.J. L 142, 2008 and OECD Test Guideline 471, Bacterial Reverse Mutation Test. Adopted Jul. 21, 1997. In the arrangement given above, the test substance was non-mutagenic for all the used tester strains without as well as with metabolic activation.
# [2] = tested on: human epidermal model EpiDerm™; test: In vitro skin irritation test, EpiDerm; format: cell-based
# Procedure: Test substance was assayed for the in vitro skin irritation in human epidermal model EpiDerm™. The test was performed according to the Method B.46. In vitro skin irritation: Reconstructed human epidermis model test and Protocol for: In Vitro EpiDerm™ Skin Irritation Test For use with MatTek Corporation's Reconstructed Human Epidermal Model EPI-200-SIT (see par. 1.4, (1), (3)). Two types of extract were prepared by means of polar (water) as well as non-polar extractant (olive oil) according to directions given in ČSN EN ISO 10 993-12 (2012). After pre-incubation of tissues, 30 μl of an extract was placed directly atop to the tissue so it covered all tissue surfaces. Length of exposition was 60 minutes. Three tissues were used for the extract and for each control. The procedure was performed separately for each extract. After removal of extracts of the test substance from tissues, tissues were post incubated for 42 hours due to leave of damage reparation, followed by three hours incubation with MTT and two hours extraction period with shaking. Optical density (OD570) of isopropyl alcohol extracts was measured on a spectrophotometer. Relative cell viability was calculated for each tissue as % of the mean viability of the negative control tissues. Under the above-described experimental design, average viability of tissues treated by test substance water extract was 99.0% and by test substance olive oil extract 103.0%, i.e. viability was >50% in both cases. The effect of the test substance 114 was negative in EpiDerm™ model (tissues were not damaged). According to the classification criteria given in chapter 4.5, the test substance is considered to have no category in regard to skin irritation.
# [3] = tested on: Rabbits (New Zealand Albino breed); details: rabbit, in vivo
# Procedure: The test substance 114 was tested in Animal skin irritation test. Rabbits (New Zealand Albino breed) were used for the test. The test was performed according to ČSN EN ISO 10993 (Březen 2014): Biologické hodnoceni zdravotnických prostředků—část 10: Zkoušky dráždivosti a senzibilizace kůže, článek 6.3 Zkouška dráždivosti na zviřatech (Biological evaluation of medical devices—Part 10: Tests for irritation and delayed-type hypersensitivity). A dose 0.5 g of the test substance was applied to the skin of the back on each side of each rabbit. […] At first the one rabbit (test animal. No. 16) was used. Two other rabbits (rabbit No. 17 and No. 18) were used in confirmatory test. At the end of the contact time (4 hours) the dressings were removed and animals were examined for signs of erythema and oedema, and the response was evaluated at 1, 24, 48 and 72 hours afterpatches removal.
# [4] = Calcein AM cytotoxicity, NIH-3T3; details: mouse, NIH-3T3 fibroblasts
# Excerpt: One of the parameters used, as the basis for cytotoxicity assays, is the metabolic activity of viable cells. For example, a microtiter assay, which uses the Calcein AM, is now widely used to quantitate cell proliferation and cytotoxicity. […] Because only metabolically active cells cleave Calcein AM, these assays detect viable cells exclusively. The quantity of reduced Calcein AM corresponds to the number of vital cells in the culture.
# Mouse fibroblasts NIH3T3; mouse immortalized bone marrow macrophages B2.4 and B10A.4, and BJ (human foreskin fibroblasts) were used for routine screening of compounds. The cells were maintained in Nunc/Corning 80 cm^2 plastic tissue culture flasks and cultured in cell culture medium (DMEM with 5 g/l glucose, 2 mM glutamine, 100 U/ml penicillin, 100 μg/ml streptomycin, 10% fetal calf serum and sodium bicarbonate).
# The cell suspensions that were prepared and diluted according to the particular cell type and the expected target cell density (2.500-30.000 cells per well based on cell growth characteristics) were added by pipette (80 μl) into 96/well microtiter plates. Inoculates were allowed a pre-incubation period of 24 hours at 37° C. and 5% CO2 for stabilisation. Four-fold dilutions of the intended test concentration were added at time zero in 20 μl aliquots to the microtiter plate wells. Usually, the compound tested was evaluated at six 4-fold dilutions. […] All compound concentrations were examined in duplicates. Incubations of cells with the tested compounds lasted for 72 hours at 37° C., in 5% CO2 atmosphere and 100% humidity. At the end of the incubation period, the cells were assayed by using Calcein AM. Ten microliters of the stock solution were pipetted into each well and incubated for 1 hour. Fluorescence (FD) was measured with the Labsystem FIA Reader Fluoroscan Ascent (UK).
# [5] = 60 minutes exposition, 42 hours post incubation, MTT, % of negative control
smiles,measurement,setting,value
"CN(C)c1nc(NCc2ccco2)c2ncn(C3CCCCO3)c2n1 (centres unmarked) [Compound 114, 2-(Dimethylamino)-6-furfurylamino-9-(tetrahydro-2H-pyran-2-yl)-9H-purine]",mutagenicity,[1],non-mutagenic
same,skin irritation classification,[2],no category
same,"average viability of tissues, olive oil extract",[2]; [5],103.0%
same,"average viability of tissues, water extract",[2]; [5],99.0%
same,effect in EpiDerm model,[2]; water and olive oil extracts,negative
same,Primary Irritation Index,"[3]; New Zealand Albino, 4 h",0
same,changes in animal weights,[3],No changes in animal weights
same,clinical signs of systemic intoxication,[3],No clinical signs of systemic intoxication
same,erythema and oedema,[3],No erythema and oedema
same,skin irritation,[3],No skin irritation
same,IC50 at 72 h,[4],> 167 µM

# Source: patent US11643413B2, “9-(2-oxacycloalkyl)-9H-purine-2,6-diamine derivatives and their use for the treatment of skin disorders” (UNIVERZITA PALACKEHO V OLOMOUCI, priority 2017, dated 2023)
